pEC50, pIC50: −log10 of the molar value.
Experiments:
[1] = target: T1, biotinylated wild-type menin and MLL-AF9 fusion protein (menin/MLL binding) (Homo sapiens, UniProt O00255); experiment: Assay 1: menin/MLL binding AlphaLISA assay, wild-type menin; settings: Table 30; column head does not say wild-type or mutated menin
T1 construct: made in house; host or cells: menin: E. coli; MLL-AF9-FLAG: HEK293 cells, used as cleared lysate
T1 sequence (O00255 1-610): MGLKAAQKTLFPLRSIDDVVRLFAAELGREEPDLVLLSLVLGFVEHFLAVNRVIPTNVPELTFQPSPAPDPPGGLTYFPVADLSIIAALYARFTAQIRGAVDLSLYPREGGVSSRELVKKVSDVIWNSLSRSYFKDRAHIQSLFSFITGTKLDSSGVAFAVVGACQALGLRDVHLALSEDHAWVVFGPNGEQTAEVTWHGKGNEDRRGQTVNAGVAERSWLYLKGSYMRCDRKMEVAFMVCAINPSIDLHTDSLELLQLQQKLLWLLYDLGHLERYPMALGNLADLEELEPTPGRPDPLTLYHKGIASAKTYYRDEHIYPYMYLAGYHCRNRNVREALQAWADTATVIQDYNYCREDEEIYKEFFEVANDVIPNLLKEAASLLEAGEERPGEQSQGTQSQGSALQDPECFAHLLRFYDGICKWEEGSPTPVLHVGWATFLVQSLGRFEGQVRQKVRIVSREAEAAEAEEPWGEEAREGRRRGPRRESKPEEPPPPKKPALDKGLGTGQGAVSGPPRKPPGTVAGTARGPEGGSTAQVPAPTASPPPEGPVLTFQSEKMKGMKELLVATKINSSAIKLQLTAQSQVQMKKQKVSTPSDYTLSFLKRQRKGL
Procedure, shortened: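 Compound was preincubated 30 min at room temperature with biotinylated menin (5 nM) and MLL-AF9-FLAG lysate from HEK293 cells, pH 7.4 buffer with 5% DMSO and DTT. Bead-based Alpha signal after 60 min with streptavidin donor and anti-FLAG acceptor beads; four-parameter logistic fit gave IC50.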

[2] = tested on: human acute monocytic leukemia cell line MV-4-11; experiment: Assay 2: cell proliferation assay (ATP quantitation, CellTiter-Glo), MV-4-11; type: cell-based; settings: MV-4-11 cells
Procedure, shortened: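 MV-4-11 cells, 1.67×10^4 per well in medium with 10% FBS, were exposed to compound for 72 h at 37° C., 5% CO2; HL-60 cells served as toxicity control. Proliferation read as ATP content by CellTiter-Glo luminescence.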

Cn1c(-c2cc(F)ccc2Oc2cncnc2N2CCC3(CCN(Cc4ccc5c(c4)[nH]c(=O)n5CCO)C3)C2)c(C2CC2)ccc1=O (single isomer, unassigned) [Example 81B, 5-((7-(5-(2-(3-cyclopropyl-1-methyl-6-oxo-1,6-dihydropyridin-2-yl)-4-fluorophenoxy)pyrimidin-4-yl)-2,7-diazaspiro[4.4]nonan-2-yl)methyl)-1-(2-hydroxyethyl)-1H-benzo[d]imidazol-2(3H)-one]
pIC50 [1]: > 7.00 | pEC50 ([2]; 72 h): > 7.00

CC(C)N(C)C(=O)c1cc(F)ccc1Oc1cncnc1N1CCC2(CCN(Cc3ccc4cn[nH]c4c3)C2)C1 (stereo not drawn) [Example 145, 2-((4-(7-((1H-indazol-6-yl)methyl)-2,7-diazaspiro[4.4]nonan-2-yl)pyrimidin-5-yl)oxy)-5-fluoro-N-isopropyl-N-methylbenzamide]
pIC50 [1]: > 7.00 | pEC50 ([2]; Homo sapiens, MV4-11, 72 h): 6.00 to 7.00

COC(=O)N(C)c1cc(F)ccc1Oc1cncnc1N1CCC2(CCN(Cc3ccc4[nH]c(=O)[nH]c4c3)C2)C1 (stereo not drawn) [Example 207, methyl (5-fluoro-2-((4-(7-((2-oxo-2,3-dihydro-1H-benzo[d]imidazol-5-yl)methyl)-2,7-diazaspiro[4.4]nonan-2-yl)pyrimidin-5-yl)oxy)phenyl) (methyl)carbamate]
pIC50 [1]: > 7.00 | pEC50 ([2]; Homo sapiens, MV4-11, 72 h): 6.00 to 7.00

CC(C)C(=O)N(C)c1cc(F)ccc1Oc1cncnc1N1CCC2(CCN(Cc3ccc4[nH]c(=O)[nH]c4c3)C2)C1 (stereo not drawn) [Example 76, N-(5-fluoro-2-((4-(7-((2-oxo-2,3-dihydro-1H-benzo[d]imidazol-5-yl)methyl)-2,7-diazaspiro[4.4]nonan-2-yl)pyrimidin-5-yl)oxy)phenyl)-N-methylisobutyramide]
pIC50 [1]: > 7.00 | pEC50 ([2]; Homo sapiens, MV4-11, 72 h): > 7.00

N#Cc1ccc(-c2cc(F)ccc2Oc2cncnc2N2CCC3(CCN(Cc4ccc(N5CCCC5=O)cc4)C3)C2)c(C2CC2)c1 (stereo not drawn) [Example 195, 2-cyclopropyl-5′-fluoro-2′-((4-(7-(4-(2-oxopyrrolidin-1-yl)benzyl)-2,7-diazaspiro [4.4]nonan-2-yl)pyrimidin-5-yl)oxy)-[1,1′-biphenyl]-4-carbonitrile]
pIC50 [1]: > 7.00 | pEC50 ([2]; Homo sapiens, MV4-11, 72 h): 6.00 to 7.00

CC(C)c1ccccc1-c1cc(F)ccc1Oc1cncnc1N1CCC2(CCN(C[C@H]3CC[C@H](N)CC3)C2)C1 (stereo partly drawn) [Example 219, (1r,4r)-4-((7-(5-((5-fluoro-2′-isopropyl-[1,1′-biphenyl]-2-yl)oxy)pyrimidin-4-yl)-2,7-diazaspiro[4.4]nonan-2-yl)methyl)cyclo-hexan-1-amine]
pIC50 [1]: > 7.00 | pEC50 ([2]; Homo sapiens, MV4-11, 72 h): 6.00 to 7.00

CC(C)c1ncncc1-c1cc(F)ccc1Oc1cncnc1N1CC2(CN(C(=O)Cc3ccc(C#N)cc3)C2)C1 [Example 227, 4-(2-(6-(5-(4-fluoro-2-(4-isopropylpyrimidin-5-yl)phenoxy)pyrimidin-4-yl)-2,6-diazaspiro[3.3]heptan-2-yl)-2-oxoethyl)benzonitrile]
pIC50 [1]: > 7.00 | pEC50 ([2]; Homo sapiens, MV4-11, 72 h): > 7.00

CC(C)(C)OC(=O)N[C@H]1CC[C@H](CCN2CC3(C2)CN(c2ncncc2Oc2ccc(F)cc2-c2cccnc2C2CC2)C3)CC1 [Example 88, tert-butyl ((1r,4r)-4-(2-(6-(5-(2-(2-cyclopropylpyridin-3-yl)-4-fluorophenoxy)pyrimidin-4-yl)-2,6-diazaspiro[3.3]heptan-2-yl)ethyl)cyclohexyl) carbamate]
pIC50 [1]: > 7.00 | pEC50 ([2]; Homo sapiens, MV4-11, 72 h): > 7.00

CC(C)N(C(=O)c1cc(F)ccc1Oc1cncnc1N1CCC2(CCN(Cc3ccc4c(c3)NC(=O)C4(C)C#N)C2)C1)C(C)C (stereo not drawn) [Example 90, 2-((4-(7-((3-cyano-3-methyl-2-oxoindolin-6-yl)methyl)-2,7-diazaspiro[4.4]nonan-2-yl)pyrimidin-5-yl)oxy)-5-fluoro-N,N-diisopropylbenzamide]
pIC50 [1]: > 7.00 | pEC50 ([2]; Homo sapiens, MV4-11, 72 h): > 7.00

N#Cc1ccc2c(CN3CCC4(CCN(c5ncncc5Oc5ccc(F)cc5OCC5CC5)C4)C3)c[nH]c2c1 (stereo not drawn) [Example 201, 3-((7-(5-(2-(cyclopropylmethoxy)-4-fluorophenoxy)pyrimidin-4-yl)-2,7-diazaspiro[4.4]nonan-2-yl)methyl)-1H-indole-6-carbonitrile]
pIC50 [1]: > 7.00 | pEC50 ([2]; Homo sapiens, MV4-11, 72 h): ≤ 6.00

CC1(C)C(=O)Nc2cc(CN3CCC4(CCN(c5ncncc5Oc5ccc(F)cc5OCC(F)(F)F)C4)C3)ccc21 (stereo not drawn) [Example 182, 6-((7-(5-(4-fluoro-2-(2,2,2-trifluoroethoxy)phenoxy)pyrimidin-4-yl)-2,7-diazaspiro[4.4]nonan-2-yl)methyl)-3,3-dimethylindolin-2-one]
pIC50 [1]: > 7.00 | pEC50 ([2]; Homo sapiens, MV4-11, 72 h): 6.00 to 7.00

CC(C)c1ncncc1-c1cc(F)ccc1Oc1cncnc1N1CCC2(CCN(CC(C)(C)O)C2)C1 (stereo not drawn) [Example 176, 1-(7-(5-(4-fluoro-2-(4-isopropylpyrimidin-5-yl)phenoxy)pyrimidin-4-yl)-2,7-diazaspiro[4.4]nonan-2-yl)-2-methylpropan-2-ol]
pIC50 [1]: > 7.00 | pEC50 ([2]; Homo sapiens, MV4-11, 72 h): ≤ 6.00

CC(C)N(C(=O)c1cc(F)ccc1Oc1cncnc1N1CC2(CN(CC[C@H]3CC[C@H](NC(=O)C(C)(C)C)CC3)C2)C1)C(C)C [Example 105, 5-fluoro-N,N-diisopropyl-2-((4-(6-(2-((1r,4r)-4-pivalamidocyclo-hexyl)ethyl)-2,6-diazaspiro[3.3]heptan-2-yl)pyrimidin-5-yl)oxy)benzamide]
pIC50 [1]: > 7.00 | pEC50 ([2]; Homo sapiens, MV4-11, 72 h): > 7.00

CC(C)c1nccn1-c1cc(F)ccc1Oc1cncnc1N1CCC2(CCN(Cc3ccc4[nH]c(=O)[nH]c4c3)C2)C1 (stereo not drawn) [Example 53, 5-((7-(5-(4-fluoro-2-(2-isopropyl-1H-imidazol-1-yl)phenoxy)pyrimidin-4-yl)-2,7-diazaspiro[4.4]nonan-2-yl)methyl)-1H-benzo[d]imidazol-2(3H)-one]
pIC50 [1]: > 7.00 | pEC50 ([2]; Homo sapiens, MV4-11, 72 h): > 7.00

CC(C)n1nccc1-c1cc(F)ccc1Oc1cncnc1N1CCC2(CCN(Cc3ccc4[nH]c(=O)[nH]c4c3)C2)C1 (stereo not drawn) [Example 237, 5-((7-(5-(4-fluoro-2-(1-isopropyl-1H-pyrazol-5-yl)phenoxy)pyrimidin-4-yl)-2,7-diazaspiro[4.4]nonan-2-yl)methyl)-1,3-dihydro-2H-benzo[d]imidazol-2-one]
pIC50 [1]: > 7.00 | pEC50 ([2]; Homo sapiens, MV4-11, 72 h): > 7.00

Cn1c(-c2cc(F)ccc2Oc2cncnc2N2CCC3(CCN(Cc4ccc5[nH]c(=O)[nH]c5c4)C3)C2)c(C2CC2)ccc1=O (racemic) [Example 29, 5-((7-(5-(2-(3-cyclopropyl-1-methyl-6-oxo-1,6-dihydropyridin-2-yl)-4-fluorophenoxy)pyrimidin-4-yl)-2,7-diazaspiro[4.4]nonan-2-yl)methyl)-1,3-dihydro-2H-benzo[d]imidazol-2-one]
pIC50 [1]: > 7.00 | pEC50 ([2]; Homo sapiens, MV4-11, 72 h): > 7.00

CC(C)c1ncncc1-c1cc(F)ccc1Oc1cncnc1N1CC2(CC(N3CCc4cc(F)ccc4C3)CO2)C1 (stereo not drawn) [Example 139, 2-(5-(4-fluoro-2-(4-isopropylpyrimidin-5-yl)phenoxy)pyrimidin-4-yl)-7-(6-fluoro-3,4-dihydroisoquinolin-2(1H)-yl)-5-oxa-2-azaspiro[3.4]octane]
pIC50 [1]: > 7.00 | pEC50 ([2]; Homo sapiens, MV4-11, 72 h): 6.00 to 7.00

COC(=O)N(c1cc(F)ccc1Oc1cncnc1N1CCC2(CCN(Cc3ccc4[nH]c(=O)[nH]c4c3)C2)C1)C(C)C (stereo not drawn) [Example 144, methyl (5-fluoro-2-((4-(7-((2-oxo-2,3-dihydro-1H-benzo[d]imidazol-5-yl)methyl)-2,7-diazaspiro[4.4]nonan-2-yl)pyrimidin-5-yl)oxy)phenyl)(iso-propyl)carbamate]
pIC50 [1]: > 7.00 | pEC50 ([2]; Homo sapiens, MV4-11, 72 h): > 7.00

COc1cc(F)ccc1Oc1cncnc1N1CCC2(CCN(Cc3ccc4[nH]c(=O)[nH]c4c3)C2)C1 (stereo not drawn) [Example 209, 5-((7-(5-(4-fluoro-2-methoxyphenoxy)pyrimidin-4-yl)-2,7-diazaspiro[4.4]nonan-2-yl)methyl)-1,3-dihydro-2H-benzo[d]imidazol-2-one]
pIC50 [1]: > 7.00 | pEC50 ([2]; Homo sapiens, MV4-11, 72 h): 6.00 to 7.00

CC(C)c1ccccc1-c1cc(F)ccc1Nc1cncnc1N1CC2(CN(CC3CCOCC3)C2)C1 [Example 15, N-(5-fluoro-2′-isopropyl-[1,1′-biphenyl]-2-yl)-4-(6-((tetrahydro-2H-pyran-4-yl)methyl)-2,6-diazaspiro[3.3]heptan-2-yl)pyrimidin-5-amine]
pIC50 [1]: > 7.00 | pEC50 ([2]; Homo sapiens, MV4-11, 72 h): 6.00 to 7.00

N#Cc1ccc(-c2cc(F)cc(F)c2Oc2cncnc2N2CCC3(CCN(Cc4ccc5[nH]c(=O)[nH]c5c4)C3)C2)c(C2CC2)c1 (stereo not drawn) [Example 52, 2-cyclopropyl-3′,5′-difluoro-2′-((4-(7-((2-oxo-2,3-dihydro-1H-benzo[d]imidazol-5-yl)methyl)-2,7-diazaspiro[4.4]nonan-2-yl)pyrimidin-5-yl)oxy)-[1,1′-biphenyl]-4-carbonitrile]
pIC50 [1]: > 7.00 | pEC50 ([2]; 72 h): > 7.00
